Results on three molecules are retold here after patent US7524840B2, “7,8-disubstituted pyrazolobenzodiazepines” (Hoffmann-La Roche Inc., priority 2004, dated 2009).

pIC50: −log10 of the molar value.

One assay deals with H460a. The experiment in a line: H460a cell-based MTT proliferation assay. To be noted: 120 h, 5 days post addition of test compound, read-out: Antiproliferative Activity H460a Assay IC90. On the procedure:
The H460a cell line was purchased from (ATCC; Rockville, Md.) and was grown in the medium recommended by ATCC. For analysis of the effect of the test compounds on growth of these cells, the cells were plated at 150 cells per well in a 96-well tissue culture plate, and were incubated overnight at 37° C. with 5% CO2. The next day, the test compounds were dissolved in 100% dimethyl sulfoxide (DMSO) to yield a 10 mM stock solution. Each compound was diluted with sterile medium to 1 mM in a sufficient quantity to yield a final concentration of 120 μM. The compounds were then serially diluted in medium with 1.2% DMSO. One-fourth final volume of the diluted compounds was transferred to 96 well plates. Test compounds were assayed in duplicate. […] The plates were returned to the incubator, and 5 days post addition of test compound, were analyzed as described below. […] Absorbencies were read in a microtiter plate reader (Molecular Dynamics) at a wavelength of 570 nm with a 650 nm reference. Percent inhibition was calculated by subtracting the absorbance of the blank (no cell) wells from all wells, then subtracting the division of the average absorbance of each test duplicate by the average of the controls from 1.00. Inhibitory concentrations (IC50) were determined from the linear regression of a plot of the logarithm of the concentration versus the percent inhibition.

For another assay, the system named is FGF-stimulated HUVEC. The experiment in a line: FGF-stimulated HUVEC proliferation assay (BrdU). The class given is cell-based. The following applies: Homo sapiens, BrdU labeling, FGF 5 ng per mL, 24 hour exposure, read-out: Antiproliferative Activity FGF-stimulated HUVEC Assay IC50. The method, then:
The antiproliferative activity of test compounds of this invention in cell-based assays was evaluated by BrdU assay using the BrdU kit (Roche Biochemicals 1-647-229). Human umbilical vein endothelial cells (HUVEC, Clonetics CC-2519) were cultured in EGM-2 (Clonetics CC-3162) medium and seeded at 10000 cells per well in a volume of 200 μL of EGM-2 (Clonetics CC-3162) media in a 96-well flat bottom plates (Costar 3595) overnight. After 24 hours of growth at 37° C. with 5% CO2, the incubation media was removed slowly by aspiration, and the content of each well was washed with 300 μL pre-warmed EBM-2 (Clonetics CC-3156) containing 50 μg per mL of gentamycin and 50 ng per mL of amphotercin-B (Clonetics CC-4083). Subsequently, the remaining media was again aspirated and replaced with 160 μL per well of serum starvation media (EBM-2 supplemented with 1% heat inactivated FBS (Clonetics CC-4102), 50 μg per mL gentamycin and 50 ng per mL of amphotercin-B (Clonetics CC-4083), 10 units per mL of Wyeth-Ayerst heparin (NDC0641-0391-25), and 2 mM L-glutamine (GIBCO 25030-081). After serum starving the cells for 24 hours, 20 μL of test compound at 10× test concentration in serum starvation medium with 2.5% DMSO was added to the appropriate wells. The control wells contained 20 μL of serum starvation medium with 2.5% DMSO. Plates were returned to the incubator for 2 hours. After pre-incubating the cells with the test compounds for 2 hours, 20 μL of growth factors at 10X assay concentration diluted in serum starvation media, FGF at 50 ng per mL, or VEGF (R&D systems 293-VE) at 200 ng per mL were added. The final concentration of FGF in the assay was 5 ng per mL and the final concentration of VEGF in the assays was 20 ng per mL. The growth factor free control wells had 20 μL per well of serum starvation media with the same amount of BSA as the wells with growth factors. The plates were returned to the incubator for an additional 22 hours.
After 24 hour exposure to the test compounds, the cells were labeled with BrdU (Roche Biochemicals 1-647-229), by adding 20 μL per well of BrdU labeling reagent that has been diluted (1:100) in serum starvation medium. The plates were then returned to the incubator for 4 hours. The labeling medium was removed by draining the medium onto paper towels. […] The plates were read at 450 nm with reference wavelength of 650 nm. The percent inhibition for each test compound was calculated by subtracting the absorbency of the blank (no cells) wells from all wells, then subtracting the division of the average absorbency of each test duplicate by the average of the controls from 1. […] The IC50 is determined from the linear regression of a plot of the logarithm of the concentration versus percent inhibition.
On the technique in general: Dividing cells build labelled thymidine or BrdU into new DNA.

In a further assay the target is T1, Cyclin E/CDK2 (Homo sapiens, UniProt P24941).
T1 construct: made in house; host or cells: insect cells
The experiment in a line: CDK2 Flash Plate Assay (Rb phosphorylation, 33P-ATP). The class given is biochemical. On the procedure: To determine inhibition of CDK2 activity, purified recombinant retinoblastoma (Rb) protein was coated on 96 well FlashPlates (New England Nuclear, Boston, Mass.). […] Recombinant active human Cyclin E/CDK2 complexes were partially purified from extracts of insect cells. […] Plates were incubated for 25 minutes at room temperature with shaking, then washed and counted in the Topcount scintillation counter (Packard Instrument Co., Downers Grove, Ill.). Dilutions of test compounds were tested in duplicate in each assay. The percent inhibition of Rb phosphorylation, which is a measure of the inhibition of CDK2 activity, was determined according to the following formula:
[formula] where “test compound” refers to the average counts per minute of the test duplicates, “nonspecific” refers to the average counts per minute when no Cyclin E/CDK2 was added, and “total” refers to the average counts per minute when no compound was added.

A further assay relates to HCT-116. Put plainly: HCT-116 (colon) cell-based MTT proliferation assay. The following applies: Homo sapiens, HCT-116, 96 h, 4 days post addition of test compound, read-out: Antiproliferative Activity HCT 116 (colon) Assay IC50. On the procedure:
The estrogen receptor negative epithelial breast carcinoma line (MDA-MB-435) was purchased from American Type Cell Culture Collection (ATCC; Rockville, Md.) and was grown in the medium recommended by ATCC. For analysis of the effect of the test compounds on growth of these cells, the cells were plated at 2000 cells per well in a 96-well tissue culture plate, and were incubated overnight at 37° C. with 5% CO2. The next day, the test compounds were dissolved in 100% dimethyl sulfoxide (DMSO) to yield a 10 mM stock solution. Each compound was diluted with sterile medium to 1 mM in a sufficient quantity to yield a final concentration of 120 μM. The compounds were then serially diluted in medium with 1.2% DMSO. One-fourth final volume of the diluted compounds was transferred to 96 well plates. Test compounds were assayed in duplicate. DMSO was added to a row of “control cells” such that the final concentration of DMSO in each well was 0.3%. Wells to which no cells were added served as the “blank.” Wells to which no inhibitor was added served as “no inhibitor control”. The plates were returned to the incubator, and 5 days post addition of test compound, were analyzed as described below.
3-(4,5-Dimethylthiazole-2-yl)-2,5-diphenyl-2H-tetrazolium bromide (thiazolyl blue; MTT) was added to each well to yield a final concentration of 1 mg/mL. The plates were then incubated at 37° C. for 3 hours. The plates were centrifuged at 1000 rpm for 5 minutes prior to aspiration of the MTT-containing medium. The MTT-containing medium was then removed and 100 μL 100% ethanol was added to each well to dissolve the resulting formazan metabolite. To ensure complete dissolution, plates were shaken for 15 minutes at room temperature. Absorbencies were read in a microtiter plate reader (Molecular Dynamics) at a wavelength of 570 nm with a 650 nm reference. Percent inhibition was calculated by subtracting the absorbance of the blank (no cell) wells from all wells, then subtracting the division of the average absorbance of each test duplicate by the average of the controls from 1.00. Inhibitory concentrations (IC50) were determined from the linear regression of a plot of the logarithm of the concentration versus the percent inhibition.
The colon adenocarcinoma line SW480 and the colon carcinoma line HCT-116 also were obtained from the ATCC and were tested according to the same protocol provided above for MDA-MB-435 cell based assay with the following modifications. Cell line SW480 was plated at 1000 cells per well and analyzed at 6 days post addition of the test compound. Cell line HCT-116 was plated at 1000 cells per well and analyzed at 4 days post addition of test compound.
(In general: Formazan colour is commonly taken as a measure of viable cells.)

Another assay deals with MDA-MB-435. Put plainly: MDA-MB-435 cell-based MTT proliferation assay. The following applies: Homo sapiens, MDA-MB-435, 120 h, 5 days post addition of test compound, read-out: IC50 for inhibition in the MDA-MB-435 cell-based assay. The method, then:
(§1) The estrogen receptor negative epithelial breast carcinoma line (MDA-MB-435) was purchased from American Type Cell Culture Collection (ATCC; Rockville, Md.) and was grown in the medium recommended by ATCC. For analysis of the effect of the test compounds on growth of these cells, the cells were plated at 2000 cells per well in a 96-well tissue culture plate, and were incubated overnight at 37° C. with 5% CO2. The next day, the test compounds were dissolved in 100% dimethyl sulfoxide (DMSO) to yield a 10 mM stock solution. Each compound was diluted with sterile medium to 1 mM in a sufficient quantity to yield a final concentration of 120 μM. The compounds were then serially diluted in medium with 1.2% DMSO. […] The plates were returned to the incubator, and 5 days post addition of test compound, were analyzed as described below.
(§2) 3-(4,5-Dimethylthiazole-2-yl)-2,5-diphenyl-2H-tetrazolium bromide (thiazolyl blue; MTT) was added to each well to yield a final concentration of 1 mg/mL. […] Absorbencies were read in a microtiter plate reader (Molecular Dynamics) at a wavelength of 570 nm with a 650 nm reference. Percent inhibition was calculated by subtracting the absorbance of the blank (no cell) wells from all wells, then subtracting the division of the average absorbance of each test duplicate by the average of the controls from 1.00. […]

The next assay concerns SW480. The experiment in a line: SW480 (colon) cell-based MTT proliferation assay. To be noted: Homo sapiens, SW480, 144 h, 6 days post addition of the test compound, read-out: IC50 for inhibition in the SW480 (colon) based assay. The method, then: as §1, §2

Broadly, the IC90 is the point of the concentration-response curve where the effect stands at 90%. The pIC50 is the IC50 on a negative log10 scale, so that one unit is a factor of ten. As for `COc1cc2c(cc1C#N)C(c1ccccc1Cl)=Nc1c(n[nH]c1C)N2` [IVb, 5-(2-chlorophenyl)-7-cyano-1,2-dihydro-8-methoxy-3-methyl-pyrazolo[3,4-b][1,4]benzodiazepine], the IC90 with H460a stood at 118 nM. Also, the pIC50 in the assay on FGF-stimulated HUVEC was 8.30; on Cyclin E/CDK2, 6.74.

Turning to `COCCOc1cc2c(cc1F)C(c1ccccc1Cl)=Nc1c(n[nH]c1C)N2` [IVf, 5-(2-chlorophenyl)-1,2-dihydro-7-fluoro-8-methoxyethoxy-3-methyl-pyrazolo[3,4-b][1,4]benzodiazepine], the values for the pIC50 in the assay on HCT-116 and against Cyclin E/CDK2 were 6.30 and 6.40, respectively.

Regarding `Cc1cc2c(cc1C)C(c1ccccc1Cl)=NCC(=O)N2` [Iw, 5-(2-chlorophenyl)-1,3-dihydro-7,8-dimethyl-2H-1,4-benzodiazepin-2-one], the pIC50 in the assay with MDA-MB-435 and with SW480 was 6.02 in each case.
